Data reported in patent US7914768B2, “Stabiliser for radiopharmaceuticals” (GE Healthcare Limited, priority 2000, dated 2011).

Experiment: Rcp of ^99mTc-HMPAO after addition of a single stabiliser, two step process (Example 1)
Type: physicochemical
Details: additive added 2 minutes post-radiolabelling; amount as in table; n = 3 (*n = 1)
Experimental: To each of ten vials each containing 0.5 mg of HMPAO and 4.0 μg of Sn^2+ (stannous), was added sodium pertechnetate (1.48 GBq in 5 ml of saline) to carry out the radiolabelling. To each of 9 of the ten reconstituted vials was individually added the compound shown in Table 1 at a time of 2 minutes post-radiolabelling. Nothing was added to the remaining vial. At 1 minute and 3 hours after the addition, an aliquot was taken from each vial and the Rcp measured by a combination of three chromatographic systems (stationary phase/developing solvent: silica gel/methyl ethyl ketone, silica gel/saline, filter paper/50% aqueous acetonitrile).

Question: Which results are given for `Nc1ccc(C(=O)O)cc1` [4-Aminobenzoic acid, 4-aminobenzoic acid]?
Answer: Rcp 1 min from addition (%): 80 ± 8%; Rcp 3 hours from addition (%): 67 ± 5%

Question: For `O=C1O[C@H]([C@@H](O)CO)C(O)=C1O` [Ascorbic acid], which “Rcp 1 min from addition (%)” value is on record?
Answer: 83* %

Question: What about the “Rcp 3 hours from addition (%)” value of the same compound?
Answer: 41* %

Question: With `[Cl][Co][Cl]` [Cobalt chloride] as the compound, how does the “Rcp 1 min from addition (%)” value read?
Answer: 94 ± 3%

Question: And the “Rcp 3 hours from addition (%)” value?
Answer: 89 ± 2%

Question: With `O=C(NCCO)c1cc(O)ccc1O` [Gentisic acid ethanolamide] as the compound, how does the “Rcp 1 min from addition (%)” value read?
Answer: 61 ± 3%

Question: And the “Rcp 3 hours from addition (%)” value?
Answer: 29 ± 13%

Question: For `O=C(O)c1cc(O)ccc1O` [Gentisic acid], which “Rcp 1 min from addition (%)” value is on record?
Answer: 87 ± 2%

Question: And the “Rcp 3 hours from addition (%)” value?
Answer: 77 ± 3%

Question: What does the source list for `O=P(O)(O)CP(=O)(O)O` [Methylene diphosphonic acid, methylenediphosphonic acid]?
Answer: Rcp 1 min from addition (%): 79* %; Rcp 3 hours from addition (%): 30* %

Question: For `Nc1ccc(C(=O)[O-])cc1.[Na+]` [Sodium4-amino-benzoate, sodium 4-aminobenzoate], which “Rcp 1 min from addition (%)” value is on record?
Answer: 69 ± 5%

Question: What about the “Rcp 3 hours from addition (%)” value of the same compound?
Answer: 39 ± 11%

Question: With `O=C1O[C@H]([C@@H](O)CO)C([O-])=C1O.[Na+]` [Sodium ascorbate] as the compound, how does the “Rcp 1 min from addition (%)” value read?
Answer: 90* %

Question: And the “Rcp 3 hours from addition (%)” value?
Answer: 51* %

Question: With `O=C(O)CCC(=O)O` [Succinic acid] as the compound, how does the “Rcp 1 min from addition (%)” value read?
Answer: 51* %

Question: What about the “Rcp 3 hours from addition (%)” value of the same compound?
Answer: 14* %
